Assays:
Assay type in all cases: functional
UACC-62 = assay: Cytotoxicity against human UACC62 cells assessed as growth inhibition at 10 uM after 48 hrs by coulter counter analysis; settings: UACC-62, 48 h, read-out: GI
SW-620 = assay: Cytotoxicity against human SW620 cells assessed as growth inhibition at 10 uM after 48 hrs by coulter counter analysis; settings: SW-620, 48 h, read-out: GI
MDA-MB-435 = assay: Cytotoxicity against human MDA-MB-435 cells assessed as growth inhibition at 10 uM after 48 hrs by coulter counter analysis; settings: MDA-MB-435, 48 h, read-out: GI
IGROV-1 = assay: Cytotoxicity against human IGROV1 cells assessed as growth inhibition at 10 uM after 48 hrs by coulter counter analysis; settings: IGROV-1, 48 h, read-out: GI
NCI-H322M = assay: Cytotoxicity against human NCI-H322M cells assessed as growth inhibition at 10 uM after 48 hrs by coulter counter analysis; settings: read-out: GI
BT-549 = assay: Cytotoxicity against human BT549 cells assessed as growth inhibition at 10 uM after 48 hrs by coulter counter analysis; settings: BT-549, 48 h, read-out: GI
NCI-H23 = assay: Cytotoxicity against human NCI-H23 cells assessed as growth inhibition at 10 uM after 48 hrs by coulter counter analysis; settings: NCI-H23, 48 h, read-out: GI
A498 = assay: Cytotoxicity against human A498 cells assessed as growth inhibition at 10 uM after 48 hrs by coulter counter analysis; settings: A498, 48 h, read-out: GI
SNB-19 = assay: Cytotoxicity against human SNB19 cells assessed as growth inhibition at 10 uM after 48 hrs by coulter counter analysis; settings: SNB-19, 48 h, read-out: GI
SNB-75 = assay: Cytotoxicity against human SNB75 cells assessed as growth inhibition at 10 uM after 48 hrs by coulter counter analysis; settings: SNB-75, 48 h, read-out: GI
[1] = Cytotoxicity against human EKVX cells assessed as growth inhibition at 10 uM after 48 hrs by coulter counter analysis; settings: read-out: GI
OVCAR-4 = assay: Cytotoxicity against human OVCAR4 cells assessed as growth inhibition at 10 uM after 48 hrs by coulter counter analysis; settings: OVCAR-4, 48 h, read-out: GI
U-251 = assay: Cytotoxicity against human U251 cells assessed as growth inhibition at 10 uM after 48 hrs by coulter counter analysis; settings: U-251, 48 h, read-out: GI
A549 = assay: Cytotoxicity against human A549 cells assessed as growth inhibition at 10 uM after 48 hrs by coulter counter analysis; settings: A549, 48 h, read-out: GI
SF-268 = assay: Cytotoxicity against human SF268 cells assessed as growth inhibition at 10 uM after 48 hrs by coulter counter analysis; settings: SF-268, 48 h, read-out: GI
HCC 2998 = assay: Cytotoxicity against human HCC2998 cells assessed as growth inhibition at 10 uM after 48 hrs by coulter counter analysis; settings: HCC 2998, 48 h, read-out: GI
HCT-116 = assay: Cytotoxicity against human HCT116 cells assessed as growth inhibition at 10 uM after 48 hrs by coulter counter analysis; settings: HCT-116, 48 h, read-out: GI
HT-29 = assay: Cytotoxicity against human HT-29 cells assessed as growth inhibition at 10 uM after 48 hrs by coulter counter analysis; settings: HT-29, 48 h, read-out: GI
786-0 = assay: Cytotoxicity against human 786-0 cells assessed as growth inhibition at 10 uM after 48 hrs by coulter counter analysis; settings: 786-0, 48 h, read-out: GI
Malme-3M = assay: Cytotoxicity against human MALME-3M cells assessed as growth inhibition at 10 uM after 48 hrs by coulter counter analysis; settings: read-out: GI
HCT-15 = assay: Cytotoxicity against human HCT15 cells assessed as growth inhibition at 10 uM after 48 hrs by coulter counter analysis; settings: HCT-15, 48 h, read-out: GI
TK-10 = assay: Cytotoxicity against human TK10 cells assessed as growth inhibition at 10 uM after 48 hrs by coulter counter analysis; settings: TK-10, 48 h, read-out: GI
KM12 = assay: Cytotoxicity against human KM12 cells assessed as growth inhibition at 10 uM after 48 hrs by coulter counter analysis; settings: KM12, 48 h, read-out: GI
Hs-578T = assay: Cytotoxicity against human Hs578T cells assessed as growth inhibition at 10 uM after 48 hrs by coulter counter analysis; settings: read-out: GI
OVCAR-8 = assay: Cytotoxicity against human OVCAR8 cells assessed as growth inhibition at 10 uM after 48 hrs by coulter counter analysis; settings: OVCAR-8, 48 h, read-out: GI
COLO 205 = assay: Cytotoxicity against human COLO205 cells assessed as growth inhibition at 10 uM after 48 hrs by coulter counter analysis; settings: COLO 205, 48 h, read-out: GI
RXF 393 = assay: Cytotoxicity against human RXF393 cells assessed as growth inhibition at 10 uM after 48 hrs by coulter counter analysis; settings: RXF 393, 48 h, read-out: GI
UO-31 = assay: Cytotoxicity against human UO31 cells assessed as growth inhibition at 10 uM after 48 hrs by coulter counter analysis; settings: UO-31, 48 h, read-out: GI
OVCAR-3 = assay: Cytotoxicity against human OVCAR3 cells assessed as growth inhibition at 10 uM after 48 hrs by coulter counter analysis; settings: OVCAR-3, 48 h, read-out: GI
SF-539 = assay: Cytotoxicity against human SF539 cells assessed as growth inhibition at 10 uM after 48 hrs by coulter counter analysis; settings: SF-539, 48 h, read-out: GI
[2] = Cytotoxicity against human NCI-ADR-RES cells assessed as growth inhibition at 10 uM after 48 hrs by coulter counter analysis; settings: read-out: GI
LOX IMVI = assay: Cytotoxicity against human LOXIMVI cells assessed as growth inhibition at 10 uM after 48 hrs by coulter counter analysis; settings: read-out: GI
HOP-62 = assay: Cytotoxicity against human HOP62 cells assessed as growth inhibition at 10 uM after 48 hrs by coulter counter analysis; settings: HOP-62, 48 h, read-out: GI
NCI-H460 = assay: Cytotoxicity against human NCI-H460 cells assessed as growth inhibition at 10 uM after 48 hrs by coulter counter analysis; settings: NCI-H460, 48 h, read-out: GI
PC-3 = assay: Cytotoxicity against human PC3 cells assessed as growth inhibition at 10 uM after 48 hrs by coulter counter analysis; settings: PC-3, 48 h, read-out: GI
OVCAR-5 = assay: Cytotoxicity against human OVCAR5 cells assessed as growth inhibition at 10 uM after 48 hrs by coulter counter analysis; settings: OVCAR-5, 48 h, read-out: GI
SK-OV-3 = assay: Cytotoxicity against human SKOV3 cells assessed as growth inhibition at 10 uM after 48 hrs by coulter counter analysis; settings: SK-OV-3, 48 h, read-out: GI
T47D = assay: Cytotoxicity against human T47D cells assessed as growth inhibition at 10 uM after 48 hrs by coulter counter analysis; settings: read-out: GI

| Compound | inhibition of growth at 10 µM (UACC-62) | inhibition of growth at 10 µM (SW-620) | inhibition of growth at 10 µM (MDA-MB-435) | inhibition of growth at 10 µM (IGROV-1) | inhibition of growth at 10 µM (NCI-H322M) | inhibition of growth at 10 µM (BT-549) | inhibition of growth at 10 µM (NCI-H23) | inhibition of growth at 10 µM (A498) | inhibition of growth at 10 µM (SNB-19) | inhibition of growth at 10 µM (SNB-75) | inhibition of growth at 10 µM [1] | inhibition of growth at 10 µM (OVCAR-4) | inhibition of growth at 10 µM (U-251) | inhibition of growth at 10 µM (A549) | inhibition of growth at 10 µM (SF-268) | inhibition of growth at 10 µM (HCC 2998) | inhibition of growth at 10 µM (HCT-116) | inhibition of growth at 10 µM (HT-29) | inhibition of growth at 10 µM (786-0) | inhibition of growth at 10 µM (Malme-3M) | also measured |
| --- | --- | --- | --- | --- | --- | --- | --- | --- | --- | --- | --- | --- | --- | --- | --- | --- | --- | --- | --- | --- | --- |
| O=C(CSc1nc2ccccc2c(=O)n1CCc1ccccc1)NCc1ccccc1 | 29% | < 10% | 19% | 39% | 26% | < 10% | 10% | < 10% | 17% | 38% | 25% | 13% | 24% | 17% | 28% | < 10% | 27% | < 10% | 15% | 14% | inhibition of growth at 10 µM (HCT-15): 20%; inhibition of growth at 10 µM (TK-10): 20%; inhibition of growth at 10 µM (KM12): < 10%; inhibition of growth at 10 µM (Hs-578T): 37%; inhibition of growth at 10 µM (OVCAR-8): 40%; inhibition of growth at 10 µM (COLO 205): < 10%; inhibition of growth at 10 µM (RXF 393): 16%; inhibition of growth at 10 µM (UO-31): 33%; inhibition of growth at 10 µM (OVCAR-3): 10%; inhibition of growth at 10 µM (SF-539): 38%; inhibition of growth at 10 µM [2]: 19%; inhibition of growth at 10 µM (LOX IMVI): 17%; inhibition of growth at 10 µM (HOP-62): 36%; inhibition of growth at 10 µM (NCI-H460): 29%; inhibition of growth at 10 µM (PC-3): 29%; inhibition of growth at 10 µM (OVCAR-5): < 10%; inhibition of growth at 10 µM (SK-OV-3): 14%; inhibition of growth at 10 µM (T47D): 20% |
| COc1ccc(NC(=O)CSc2nc3ccccc3c(=O)n2CCc2ccccc2)cc1 | 13% | 11% | 10% | 18% | 19% | 10% | < 10% | < 10% | 41% | 72% | 25% | < 10% | 29% | 25% | 47% | < 10% | 13% | < 10% | < 10% | 40% | inhibition of growth at 10 µM (HCT-15): < 10%; inhibition of growth at 10 µM (TK-10): 10%; inhibition of growth at 10 µM (KM12): 16%; inhibition of growth at 10 µM (Hs-578T): 49%; inhibition of growth at 10 µM (OVCAR-8): 40%; inhibition of growth at 10 µM (COLO 205): < 10%; inhibition of growth at 10 µM (RXF 393): 21%; inhibition of growth at 10 µM (UO-31): < 10%; inhibition of growth at 10 µM (OVCAR-3): 10%; inhibition of growth at 10 µM (SF-539): 10%; inhibition of growth at 10 µM [2]: 15%; inhibition of growth at 10 µM (LOX IMVI): < 10%; inhibition of growth at 10 µM (HOP-62): 52%; inhibition of growth at 10 µM (NCI-H460): 25%; inhibition of growth at 10 µM (PC-3): < 10%; inhibition of growth at 10 µM (OVCAR-5): < 10%; inhibition of growth at 10 µM (SK-OV-3): 25%; inhibition of growth at 10 µM (T47D): < 10% |
| O=C(CSc1nc2ccccc2c(=O)n1CCc1ccccc1)Oc1ccc(Cl)cc1 | 11% | < 10% | < 10% | 15% | < 10% | 15% | 25% | 10% | < 10% | 28% | 28% | 59% | < 10% | < 10% | < 10% | < 10% | < 10% | < 10% | < 10% | < 10% | inhibition of growth at 10 µM (HCT-15): 25%; inhibition of growth at 10 µM (TK-10): < 10%; inhibition of growth at 10 µM (KM12): < 10%; inhibition of growth at 10 µM (Hs-578T): 41%; inhibition of growth at 10 µM (OVCAR-8): < 10%; inhibition of growth at 10 µM (COLO 205): < 10%; inhibition of growth at 10 µM (RXF 393): < 10%; inhibition of growth at 10 µM (UO-31): < 10%; inhibition of growth at 10 µM (OVCAR-3): < 10%; inhibition of growth at 10 µM (SF-539): < 10%; inhibition of growth at 10 µM [2]: 10%; inhibition of growth at 10 µM (LOX IMVI): 14%; inhibition of growth at 10 µM (HOP-62): 10%; inhibition of growth at 10 µM (NCI-H460): < 10%; inhibition of growth at 10 µM (PC-3): 25%; inhibition of growth at 10 µM (OVCAR-5): < 10%; inhibition of growth at 10 µM (SK-OV-3): 28%; inhibition of growth at 10 µM (T47D): 14% |
| CCOC(=O)c1ccc(NC(=O)CSc2nc3ccccc3c(=O)n2CCc2ccccc2)cc1 | 29% | 11% | 16% | 31% | 23% | 12% | 13% | < 10% | 36% | 39% | 34% | 10% | 28% | 27% | 33% | < 10% | 14% | 12% | < 10% | 23% | inhibition of growth at 10 µM (HCT-15): < 10%; inhibition of growth at 10 µM (TK-10): < 10%; inhibition of growth at 10 µM (KM12): 11%; inhibition of growth at 10 µM (Hs-578T): 33%; inhibition of growth at 10 µM (OVCAR-8): 37%; inhibition of growth at 10 µM (COLO 205): 22%; inhibition of growth at 10 µM (RXF 393): 14%; inhibition of growth at 10 µM (UO-31): 10%; inhibition of growth at 10 µM (OVCAR-3): 13%; inhibition of growth at 10 µM (SF-539): < 10%; inhibition of growth at 10 µM [2]: 19%; inhibition of growth at 10 µM (LOX IMVI): 22%; inhibition of growth at 10 µM (HOP-62): 45%; inhibition of growth at 10 µM (NCI-H460): 23%; inhibition of growth at 10 µM (PC-3): 10%; inhibition of growth at 10 µM (OVCAR-5): 15%; inhibition of growth at 10 µM (SK-OV-3): 19%; inhibition of growth at 10 µM (T47D): 17% |
